Marks after values point to notes of the source that are not given here.
Test system: BALB/c mice with collagen-induced rheumatoid arthritis
Experiment: Collagen-induced rheumatoid arthritis of BALB/c mice
Type: in vivo
Settings: for CD4/278 (ratio of Th2 cells) / CD19/45 (ratio of B cells) / the number of lymphocytes: inguinal lymph nodes; for IgE / IgG1 / TNF-α: serum
Experimental: BALB/c mice were purchased from the National Laboratory Animal Center, Taiwan. 200 μg of type-IT collagen (Sigma) was subcutaneously injected into the tails of the BALB/c mice to induce the rheumatoid arthritis, wherein type-II collagen was emulsified with a Freund's complete adjuvant (Sigma) previously. At the […], 200 μg of type-II collagen was subcutaneously injected into the tails of the BALB/c mice again, and type-II collagen was emulsified with a Freund's incomplete adjuvant (Sigma) previously. From the day of the second injection, the BALB/c mice were administrated orally with kinsenoside (100 or 300 mg/kg) daily for 21 days. After 21 days, the BALB/c mice were sacrificed, and the blood, inguinal lymph nodes, and soles comprising joints of the BALB/c mice were collected for assay.
The concentrations of TNF-α and antibodies IgE and IgG1 in the serum were determined with ELISA method. Antibodies IgE and IgG1 reagents were purchased form Bethyl, Montgomery, Tex., USA.
Lymph nodes were taken from the both sides of the groins of the BALB/c mice, and were sieved to produce a single suspended cell line. The number of lymphocytes was determined with a flow cytometer. In addition, B cells and Th2 cells were stained with antibodies CD19/45 and CD4/278 (eBioscience) to obtain the ratio of B cells and Th2 cells.
The mRNAs were extracted from the right soles and joints of the mice, and the expression of the mRNAs of TNF-α was analyzed with RT-PCR (Reverse Transcription-Polymerase Chain Reaction).

[1] = kinsenoside 100 mg/kg oral daily for 21 days
[2] = kinsenoside 300 mg/kg oral daily for 21 days

SMILES: O=C1C[C@@H](OC2OC(CO)C(O)C(O)C2O)CO1 (stereo partly drawn) [kinsenoside, 3-(R)-3-β-D-glucopyranosyloxy-butanolide]
- CD4/278 (ratio of Th2 cells) [1]: 8.0 ± 0.6 %
- CD19/45 (ratio of B cells) [1]: 19.3 ± 2.1 %
- the number of lymphocytes [1]: 3.3 ± 0.6* 10^5/ml
- CD4/278 (ratio of Th2 cells) [2]: 7.6 ± 0.6 %
- CD19/45 (ratio of B cells) [2]: 18.6 ± 3.6 %
- the number of lymphocytes [2]: 2.8 ± 1.0*** 10^5/ml
- expression of mRNAs of TNF-α (right soles and joints, RT-PCR, kinsenoside 100 or 300 mg/kg oral, FIG. 5A and 5B): alleviates the expression of mRNAs of TNF-α
- IgE [1]: 0.15 ± 0.03 absorbance
- IgG1 [1]: 2.44 ± 0.05 absorbance
- TNF-α [1]: 825.9 ± 155.4* 10^−12 g/ml
- IgE [2]: 0.13 ± 0.04 absorbance
- IgG1 [2]: 2.41 ± 0.10 absorbance
- TNF-α [2]: 790.0 ± 194.1* 10^−12 g/ml

Source: patent US8084431B2, “Method for inhibiting activation of macrophages, inhibiting formation of osteoclasts, inhibiting function of osteoclasts, and/or activating osteoblasts” (China Medical University, priority 2008, dated 2011)
